Data reported in US20240287549A1, “METHODS AND COMPOSITIONS FOR EFFICIENT PRODUCTION OF BIOFUELS AND BIOPLASTICS FROM TOXIC FEEDSTOCKS” (Massachusetts Institute of Technology, priority 2021, published 2024).

Assays:
yeast [1] = conditions: previously established (ref. 16); cited from earlier work
[2] = test system: prototrophic wildtype (WT) strain FY4/5; experiment: Constituent toxicity: ethanol titer of high-gravity fermentation in YSC with single inhibitors; assay type: cell-based, Saccharomyces cerevisiae; conditions: for effect of KCl alone on ethanol titer: plus 50 mM KCl only; for additional boost of ethanol production by K+/pH adjustment: 50 mM KCl and NH4OH to pH 6 vs unadjusted
Experimental: To systematically characterize the impact of these constituent toxicities, ethanol production was assessed in yeast synthetic complete medium (YSC) with the 3 inhibitors added individually at equimolar concentration. As a completely chemically-defined formulation with trace vitamins, minerals, and amino acids, YSC lacks the undefined extracts contained in “rich” media that could supply unknown components to boost or hinder tolerance. […] For the constituent toxicity studies, prototrophic strain FY4/5 was expanded in a starter culture of YSC containing 150 g/L glucose and grown overnight to approximately OD600=10. To mimic industrial high cell density conditions, 100 OD600 units of cells per fermentation were harvested, washed with an equal volume of room temperature distilled and deionized water, and cell pellets resuspended in 4 mL media for a production cell density of approximately OD600=25 (9.9 g DCW/L). Fermentation media consisted of 250 g/L glucose in YSC and were supplemented with (left to right in FIG. 1A) 6 mM NH4Cl, 50/6 mM KCl/NH4OH, 100/128 mM acetic acid/NH4Cl, 100/50/128 mM acetic acid/KCl/NH4Cl, 100/50/128 mM acetic acid/KCl/NH4OH, 100/11 mM furfural/NHCl, 100/50/11 mM furfural/KCl/NH4OH, 100/7 mM 2-furanmethanol (FF—OH)/NHCl, 100/50/7 mM FF—OH/KCl/NH4Cl, 100/50/7 mM FF—OH/KCl/NHOH, 100/7 mM 5-hydroxymethyl-furfural (HMF)/NH4Cl, 100/50/7 mM HMF/KCl/NHOH, 100/7 mM furan-2,5-dimethanol (HMF-OH)/NH4Cl, 100/50/7 mM HMF-OH/KCl/NH4Cl, or 100/50/7 mM HMF-OH/KCl/NH4OH.
Inhibitor supplementation for the additionally screened conditions in FIGS. 2A-2C were: 50/60 mM acetic acid/NHCl, 50/50/60 mM acetic acid/KCl/NH4OH, 150/180 mM acetic acid/NH4Cl, 150/50/180 mM acetic acid/KCl/NH4OH, 50/9 mM furfural/NH4Cl, 50/50/9 mM furfural/KCl/NH4OH, 50/6 mM FF—OH/NHCl, 50/50/6 mM FF—OH/KCl/NH4OH, 150/15 mM furfural/NH4Cl. 150/50/15 mM furfural/KCl/NH4OH, 150/9 mM FF—OH/NH4Cl, 150/50/9 mM FF—OH/KCl/NH4OH, 50/6 mM HMF/NHCl, 50/50/6 mM HMF/KCl/NH4OH, 50/6 mM HMF-OH/NH4Cl, 50/50/6 mM HMF-OH/KCl/NH4OH, 150/11 mM HMF/NH4Cl, 150/50/11 mM HMF/KCl/NH4OH, 150/9 mM HMF-OH/NHCl, or 150/50/9 mM HMF-OH/KCl/NH4OH. The “/” notation is used for visual abbreviation but indicates the addition of all components during preparation. […] Furfural (Sigma-Aldrich #185914), HMF (Sigma-Aldrich #H40807), FF—OH (Sigma-Aldrich #W249106), and HMF-OH (Santa Cruz Biotechnology #sc-210242, scbt.com) were added directly to media in their supplier, concentrated forms to minimize the addition of volume. […] Fermentation samples of 550 μL were harvested after 48 h, cells removed by centrifugation (16,870×g, 2 min), and supernatants 0.45 μm syringe-filtered (Fisher Scientific #50-109-8735, fishersci.com) into glass HPLC vials and stored at 4° C. until analysis. Similarly, pre-inoculation fermentation media were syringe-filtered and diluted 1:5 in water for HPLC verification of starting glucose and inhibitor concentrations.
Analytes were separated isocratically in 5 mM sulfuric acid at 65° C. using a flow rate of […]. Under these conditions, retention times were approximately as follows: glucose 9.2 min, xylose 9.9 min, lactic acid 13.1 min, glycerol 13.8 min, acetic acid 15.3 min, ethanol 22.3 min, HMF 30.2 min, and furfural 45.0 min.

[3] = test system: medium toxified to 40/28/55 mM furfural/HMF/acetic acid; conditions: Saccharomyces cerevisiae, pH 6
yeast [4] = conditions: prior experience
[5] = 100 mM of the substance in YSC, 250 g/L glucose, 48 h, 30 °C, no K+/pH adjustment
[6] = 100 mM of the substance, plus 50 mM KCl and NH4OH to pH 6

Row | Structure (SMILES) | ethanol titer [2, 5] [g/L] | ethanol titer [2, 6] [g/L] | effect of KCl alone on ethanol titer ([2]; 100 mM of the substance) | other results
1 | [Ca+2] [Ca^2+] | – | – | – | effect on fermentation (yeast [1]): fermentation-neutral
2 | OCc1ccco1 [FF—OH, 2-furanmethanol] | 35 ± 0.4 | 59 ± 0.5 | improvements intermediate to those with K+/pH together | additional boost of ethanol production by K+/pH adjustment ([2]; 100 mM): 69%; tolerated more than furfural at equimolar concentration (ethanol output) ([2]; 100 mM, FF-OH vs FF, no K+/pH adjustment): 9 ×
3 | O=Cc1ccc(CO)o1 [HMF, 5-hydroxymethyl-furfural] | 34 ± 0.3 | – | – | concentration tolerable by yeast for growth to commence [3]: approximately 1.5 g/L
4 | OCc1ccc(CO)o1 [HMF-OH, furan-2,5-dimethanol] | – | 69 ± 0.6 | improvements intermediate to those with K+/pH together | additional boost of ethanol production by K+/pH adjustment ([2]; 100 mM): 39%; higher ethanol titer than cognate aldehyde ([2]; 100 mM, HMF-OH vs HMF, no K+/pH adjustment): 45%
5 | [K+] [K^+] | – | – | – | concentration up to which effects are fermentation-beneficial (yeast [1]): at least 110 mM
6 | Cl.N [NH4Cl] | – | – | – | concentration tolerated with no detectable changes on ethanol titer (yeast [4]): at least 200 mM
7 | CC(=O)O [acetic acid] | 17 ± 0.1 | 109 ± 0.6 | no amelioration | –
8 | O=Cc1ccco1 [furfural] | 4 ± 0.3 | – | – | –
